Where “and” joins values, the source holds several entries; their conditions need not be identical. Identical values can stand only once.
Columns and labels:
[1] = system: octopamine-sensitive adenylate cyclase (firefly lantern octopamine receptor); assay: Octopamine-sensitive adenylate cyclase activation, firefly light organ broken cell preparation; type: biochemical, firefly (Photinus pyralis)
[2] = system: adenylate cyclase in nerve cord of tobacco hornworm; assay: Octopamine agonist activity, adenylate cyclase in broken cell preparations of insect nerve cord; type: biochemical, tobacco hornworm (Manducca sexta); settings: FIG. 3
Experimental: In addition to the above method employing the firefly light organ, octopamine-sensitive adenylate cyclase can also be measured in tissue preparations from the nerve cord of any desired particular insect pest, using a modification of the method appearing in Nathanson et al. (Science 180:308-310 (1973)) herein incorporated by reference. […]. […] Otherwise, the procedure is identical to that described above.
[…]. The tissue is homogenized (usually 15 mg/ml) as above in 6 mM Tris maleate, pH 7.4. […]. This is done to cancel out the effects of dopamine and serotonin receptors which are usually present in nerve cord. It assures that the compound (B) tested is affecting only octopamine receptors (known to be present in all insect nerve cords).

[3] = system: tobacco hornworms (Manducca sexta); assay: In vivo leaf test (feeding on sprayed tomato leaves); settings: for effect of adding IBMX on antifeeding / pesticidal activity of the compound: IBMX 0.1%, FIGS. 9, 10, 17, Tables 4, 7, 8, FIG. 9 at 72 hours; for relative antifeeding potency: dose sprayed on tomato leaves; for antifeeding activity of the compound by itself: FIGS. 10, 13, 17, Table 8; for activity as synergist of DDCDM: FIGS. 14, 15, 16, 8-phenyl-theophylline 0.1% with 0.1% DDCDM compared with 0.1% IBMX; for state of the leaf 72 hours after treatment: 0.1% of each compound, FIG. 11
[4] = system: phosphodiesterase enzyme of hornworm nerve cord; assay: PDE inhibitory activity, hornworm nerve tissue; type: biochemical, tobacco hornworm (Manducca sexta); settings: FIG. 8
Text: (§1) The ability of any compound (A) to inhibit phosphodiesterase (PDE) activity in broken cell preparations of firefly lantern or in pest tissues can be determined either (1) by measuring the decrease in rate of hydrolysis of an added amount of cyclic AMP by PDE (see Methods Section of Nathanson et al., Mol. Pharmacol. 12:390-398 (1975)), or (2) by measuring the rate of accumulation of one of the breakdown products of cyclic AMP, such as 5'-AMP or adenosine (see method of Filburn et al., Anal. Biochem. 52:505-516 (1973)). Both of these are herein incorporated by reference.
(§2) In this assay (modified slightly from Filburn and Karn (Analyt. Biochem. 52: 505-516 (1973)), the rate of hydrolysis of labeled cyclic AMP to 5'-AMP by PDE is measured by converting the breakdown product (5'-AMP) to adenosine, which can be separated and measured by alumina chromatography. Specifically, tissue from either the firefly lantern or pest is homogenized (10-20 mg/ml) in 6 mM Tris-maleate buffer, pH 7.4. The hydrolysis reaction is run in test tubes containing (in 100 microliters): 80 mM Tris maleate, pH 7.4; 6 mM MgSO4; 10 pmoles tritiated cyclic AMP (2×10^4 to 2×10^5 cpm, depending upon the activity of the enzyme); 20 microliters of tissue homogenate; and various concentrations of the compound to be tested. In those cases in which the compound is insoluble in aqueous solution at pH 7.4, pH can be varied between pH 6.5 and 9.0 for optimization of solubility. In addition, the test compound can be initially solubilized in either 100% methanol or DMSO and diluted to a final concentration of 10% methanol or DMSO in the assay (in which case solvent controls are run in parallel).
The reaction is started by the addition of homogenate, run for 4 min at 37° C., and terminated by boiling for 90 sec. […] The void volume is discarded and the column is then eluted with 2 ml of 0.1N ammonium acetate, pH 4.0, the eluent collected and counted by liquid scintillation spectrometry. […]

[5] = system: Firefly phosphodiesterase enzyme; assay: PDE inhibitory activity, firefly lantern; type: biochemical, firefly (Photinus pyralis); settings: for phosphodiesterase inhibition: FIG. 6
Text: as §1
Generally, any compound capable of maximally inhibiting PDE activity by at least 50% (Vmax -inhibition) and preferably by at least 80% is preferred. Also, in terms of the concentration of the compound required for such inhibition, this can be quantitated by determining the IC 50-inhibition, i.e., the concentration of the compound required to cause 50% of the maximal inhibitioncaused by the compound at any concentration.
as §2
The reaction is started by the addition of homogenate, run for 4 min at 37° C., and terminated by boiling for 90 sec. The 5'AMP formed is then converted to adenosine by the addition of 20 microliters of an aqueous solution of 0.5 Units/ml of 5'-nucleotidase (Sigma, Grade IV), vortexed, and incubated for 30 minutes at 37° C. The second reaction is stopped by addition of 0.4 ml of 0.1N ammonium acetate, pH 4.0. The entire sample is then applied to a 0.5×8 cm column containing neutral alumina prewashed with 20 ml of 0.1N ammonium acetate, pH 4.0. The void volume is discarded and the column is then eluted with 2 ml of 0.1N ammonium acetate, pH 4.0, the eluent collected and counted by liquid scintillation spectrometry. Activity is cpms above that due to a blank which was initially incubated for 0 seconds in the first reaction.

[6] = system: cyclic AMP content of intact nerve cords of tobacco hornworms; assay: Cyclic AMP content of intact nerve cords incubated in vitro; type: cell-based, tobacco hornworm (Manducca sexta); settings: 100 micromoles/liter of IBMX, 5 minutes in vitro; without PDE inhibitor 8.9±1.6
Manducca eggs = assay: Ovacidal test (eggs dipped in drug solutions); type: in vivo, Manducca sexta; settings: IBMX 0.1 g/100 ml alone (C* = no agonist); control without IBMX 80
Experimental: In some cases, test agents were tested for ovacidal activity by dipping groups of 10-50 Manducca eggs in drug solutions for 60 seconds and then determining the percentage of eggs which produced viable larvae. A compound or synergist with active ovacidal activity was one which decreased the percentage of eggs hatched, relative to control.

[7] = system: adenylate cyclase in firefly lantern; assay: Direct activation of adenylate cyclase in firefly lantern; type: biochemical, firefly (Photinus pyralis); settings: FIG. 4
Experimental: The second type of pest controlling compounds (B2) useable in the present compositions are direct stimulators of the pest enzyme adenylate cyclase. These compounds bypass the receptor, and interact with one or another of the associated catalytic or regulatory subunits of adenylate cyclase, thereby stimulating the formation of cyclic AMP. Suitable compounds can be determined from assay of pest adenylate cyclase as described above.
Adenylate cyclase activation by test compounds was measured in test tubes containing (in 0.3 ml) 80 mM Tris-maleate, pH 7.4; 10 mM theophylline; 8 mM MgCl2; 0.1 mM GTP; 0.5 mM ethylene glycol bis (beta-aminoethyl ether)-N,N,N'N'-tetraacetic acid; 2 mM ATP; 0.06 ml of P2 fraction; and the various compounds to be tested. Prior experiments had determined that, under these conditions, octopamine-sensitive adenylate cyclase activity is optimized. Test compounds were initially solubilized (prior to aqueous dilution) in water or (if soluble) in 50% (v/v) methanol. If insoluble in 50% methanol, compounds may be dissolved initially in 100% methanol, or 100% dimethylsulfoxide, or 100% polyethylene glycol. […] Cyclic AMP in the supernatant was measured by protein-binding assay, according to the method of Brown et al., Adv. […] Protein concentration was determined by the method of Lowry et al., Journal of Biological Chemistry 193:265-275 (1951). […]

[8] = system: adenylate cyclase, nerve cord of tobacco hornworm larvae; assay: Direct activation of adenylate cyclase, broken cell preparations of hornworm nerve cord; settings: FIG. 5
[9] = agonist 10^-1 gm/100 ml + PDE Inhibitor IBMX 0.1 g/100 ml
[10] = agonist 10^-1 gm/100 ml, No PDE Inhibitor
[11] = agonist 10^-2 gm/100 ml + PDE Inhibitor IBMX 0.1 g/100 ml
[12] = agonist 10^-2 gm/100 ml, No PDE Inhibitor
[13] = agonist 10^-3 gm/100 ml + PDE Inhibitor IBMX 0.1 g/100 ml
[14] = agonist 10^-3 gm/100 ml, No PDE Inhibitor

Cc1cc(Cl)ccc1N=C1NCCN1 [NC 7]
Ka^oct /Ka^B ratio ([1]; Table 2, clonidines, N.A. = no activity): 9.8 | activation of adenylate cyclase in nerve cord [2]: potent activators of adenylate cyclase | effect of adding IBMX on antifeeding / pesticidal activity of the compound [3]: substantial increases in the potency | % Leaf Remaining ([3]; agonist 0.3 (3 × 10^-1) gm/100 ml + PDE Inhibitor IBMX 0.1 g/100 ml): 100% | % Leaf Remaining ([3]; agonist 0.3 (3 × 10^-1) gm/100 ml, No PDE Inhibitor): 80% | % Leaf Remaining [3, 9]: 95% | % Leaf Remaining [3, 10]: 55% | % Leaf Remaining [3, 11]: 85% | % Leaf Remaining [3, 12]: 30% | % Leaf Remaining [3, 13]: 48% | % Leaf Remaining [3, 14]: 23%

Cn1c(=O)c2[nH]c(-c3ccccc3)nc2n(C)c1=O [8-phenyl-theophylline]
inhibition of phosphodiesterase activity (maximal) [4]: ≤ 30% | inhibition of feeding (maximal, even at a high dose) ([3]; FIG. 13): ≤ 35% | relative antifeeding potency ([3]; FIG. 13): shows the least activity | antifeeding activity of the compound by itself [3]: little antifeeding activity | activity as synergist of DDCDM [3]: much less activity as a synergist

COc1ccc(C[C@H](N)C(=O)N[C@H]2[C@@H](O)[C@H](n3cnc4c(N(C)C)ncnc43)O[C@@H]2CO)cc1 [puromycin]
Vmax (maximal inhibition of PDE activity) ([5]; FIG. 7): greater than 70% | IC50 ([5]; FIG. 7, read-out: IC50 -inhibition): < 2000 µM | activity as synergist of DDCDM [3]: able to synergize the pesticidal activity of DDCDM

NCC(O)c1ccc(O)cc1 (racemic) [(±)-p-octopamine]
Vmax (% OCT) ([1]; Table 1, phenylethylamines, maximal activation as % of that by (±)-p-octopamine, N.A. = No Activity): 81 ± 1 % OCT and 100 ± 1 % OCT | activation of adenylate cyclase in nerve cord [2]: potent activators of adenylate cyclase | effect of adding IBMX on antifeeding / pesticidal activity of the compound [3]: greatly increases the percent leaf remaining

CC(C)Cn1c(=O)n(C)c(=O)c2[nH]cnc21 [IBMX, isobutylmethylxanthine]
phosphodiesterase inhibition [5]: more potent inhibitor of the enzyme | pattern of PDE inhibition [4]: quite similar to that in the firefly light organ | cyclic AMP content of hornworm nerve cord [6]: 21.4 ± 0.8 pmol/mg | % Living Larvae (Manducca eggs): 90% | state of the leaf 72 hours after treatment [3]: almost entirely consumed | IBMX concentrations at which IBMX itself acted to inhibit feeding ([3]; FIG. 12): 0.4-5 gm/b 100 ml | IBMX concentrations with no effect by itself and no increase of DDCDM activity ([3]; FIG. 12, DDCDM 0.1%): less than 0.001 gm/100 ml | relative antifeeding potency ([3]; FIG. 13): more potent than theophylline | antifeeding activity of the compound by itself [3]: very small inhibitory effect by itself

Cn1c(=O)c2c(ncn2C)n(C)c1=O [caffeine]
phosphodiesterase inhibition [5]: active as phosphodiesterase inhibitors | activity as synergist of DDCDM [3]: much more powerful in inhibiting leaf feeding than caffeine alone or DDCDM alone

Cc1cc(Cl)ccc1N=CN [DDCDM, di-demethylchlordimeform]
Ka ratio ([1]; FIG. 1, formamidines): 4 | Vmax ([1]; FIG. 1, formamidines, % of octopamine): 68% | activation of adenylate cyclase in nerve cord [2]: potent activators of adenylate cyclase | state of the leaf 72 hours after treatment [3]: eaten substantial amounts of the leaf | % Leaf Remaining (increase over control) ([3]; DDCDM 0.1 g/100 ml alone): 0% | % Leaf Remaining ([3]; agonist 1 gm/100 ml + PDE Inhibitor IBMX 0.1 g/100 ml): 100% | % Leaf Remaining ([3]; agonist 1 gm/100 ml, No PDE Inhibitor): 100% | % Leaf Remaining [3, 9]: 98% | % Leaf Remaining [3, 10]: 30% | % Leaf Remaining [3, 11]: 85% | % Leaf Remaining [3, 12]: 7% | % Leaf Remaining [3, 13]: 20% | % Leaf Remaining [3, 14]: 5%

C=C[C@@]1(C)CC(=O)[C@]2(O)[C@@]3(C)[C@@H](O)CCC(C)(C)[C@@H]3[C@H](O)[C@H](OC(C)=O)[C@@]2(C)O1 [forskolin]
Ka ratio [7]: 0.22 | Vmax [7]: 100% | antifeeding activity of the compound by itself [3]: has antifeeding activity | effect of adding IBMX on antifeeding / pesticidal activity of the compound [3]: enhanced | Ka ratio [8]: 0.20 | Vmax [8]: about 100%

Source: patent publication US4902690A, “Pest controlling compositions” (The General Hospital Corporation, priority 1988, dated 1990)
